In PMC8308736, “Functional Characterization of the Oxantel-Sensitive Acetylcholine Receptor from Trichuris muris” (Pharmaceuticals, 2021):
Read-outs that look alike come from different tables or passages of the source.

Tests used:
[1] = molecular target: T1, Tmu-ACR-16-like (Trichuris muris, UniProt A0A5S6R3I6); assay: two-electrode voltage-clamp in Xenopus oocytes co-injected with Xla-ric-3; format: cell-based
T1 construct: full-length subunit (464 amino acids; GenBank MZ322663), homomeric receptor in Xenopus laevis oocytes
T1 sequence (A0A5S6R3I6 entry or part of it): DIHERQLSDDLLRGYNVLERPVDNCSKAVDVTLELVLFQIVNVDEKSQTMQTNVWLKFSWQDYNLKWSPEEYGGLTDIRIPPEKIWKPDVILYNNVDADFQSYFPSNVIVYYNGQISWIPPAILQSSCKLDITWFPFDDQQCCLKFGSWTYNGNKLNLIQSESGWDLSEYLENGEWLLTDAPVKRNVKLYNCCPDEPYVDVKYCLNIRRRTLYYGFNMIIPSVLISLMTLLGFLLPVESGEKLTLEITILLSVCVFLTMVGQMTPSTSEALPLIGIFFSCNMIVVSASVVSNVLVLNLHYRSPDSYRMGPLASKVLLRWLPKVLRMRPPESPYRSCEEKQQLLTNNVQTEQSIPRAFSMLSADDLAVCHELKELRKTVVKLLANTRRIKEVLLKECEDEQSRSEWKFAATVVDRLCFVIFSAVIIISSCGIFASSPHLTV

[2] = molecular target: T2, Tsu-ACR-16-like (Trichuris suis, UniProt A0A890W0I7); assay: as above; format: cell-based
T2 construct: ACR-16-like subunit (GenBank MT386096), homomeric receptor in Xenopus laevis oocytes
T2 sequence (A0A890W0I7 22-461): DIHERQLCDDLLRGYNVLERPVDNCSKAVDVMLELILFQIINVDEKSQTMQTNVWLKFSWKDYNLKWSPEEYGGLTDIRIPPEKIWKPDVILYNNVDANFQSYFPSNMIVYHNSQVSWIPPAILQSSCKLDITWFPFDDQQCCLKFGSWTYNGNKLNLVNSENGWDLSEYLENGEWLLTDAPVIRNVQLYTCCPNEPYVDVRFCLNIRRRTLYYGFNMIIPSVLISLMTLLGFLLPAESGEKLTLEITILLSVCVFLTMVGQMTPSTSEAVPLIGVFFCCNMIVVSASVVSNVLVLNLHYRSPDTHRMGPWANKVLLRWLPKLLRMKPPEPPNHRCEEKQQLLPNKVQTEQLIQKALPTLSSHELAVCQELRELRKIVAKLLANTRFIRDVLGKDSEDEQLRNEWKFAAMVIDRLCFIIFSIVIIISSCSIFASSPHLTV

| SMILES | EC50 ([1]; read-out: EC50) | EC50 [2] | EC50 [1] |
| --- | --- | --- | --- |
| CC(=O)OCC[N+](C)(C)C [acetylcholine] | 31.1 ± 0.3 µM | – | – |
| Clc1ccc(C2CC3CCC2N3)cn1 (stereo not shown) [epibatidine] | – | 1.9 ± 0.5 µM | 1.7 ± 0.4 µM |
| CN1CCCN=C1/C=C/c1cccc(O)c1 [oxantel] | 32.7 ± 0.3 µM | – | – |
